Laboratory results taken from patent US20090270444A1, “1,7-Naphthyridines” (priority 2004, published 2009).

Tests used:
Format in all cases: biochemical
Human recombinant PDE4B = target: T1, Human recombinant PDE4B (Homo sapiens, UniProt Q07343); assay: PDE4B IMAP fluorescence polarisation assay; details: human recombinant PDE4B (HSPDE4B2B); accurate to within ±0.5; read-out: PDE4B mean pIC50 (converted)
T1 construct: made in house; host or cells: Saccharomyces cerevisiae strain GL62
Source text: Human recombinant PDE4B, in particular the 2B splice variant thereof (HSPDE4B2B), is disclosed in WO 94/20079 and also in M. M. McLaughlin et al., “A low Km, rolipram-sensitive, cAMP-specific phosphodiesterase from human brain: cloning and expression of cDNA, biochemical characterisation of recombinant protein, and tissue distribution of mRNA”, J. Biol. Chem., 1993, 268, 6470-6476. For example, in Example 1 of WO 94/20079, human recombinant PDE4B is described as being expressed in the PDE-deficient yeast Saccharomyces cerevisiae strain GL62, e.g. after induction by addition of 150 uM CuSO4, and 100,000×g supernatant fractions of yeast cell lysates are described for use in the harvesting of PDE4B enzyme.
(§1) The ability of compounds to inhibit PDE catalytic activity was determined by IMAP Fluorescence Polarisation (FP) assay (Molecular Devices Ltd code: R8062) in 384-well format. Test compounds (small volume, e.g. 0.5 μl, of solution in DMSO) were preincubated at ambient temperature in black 384-well microtitre plates (supplier: NUNC, code 262260) with PDE enzyme in 10 mM Tris-HCl buffer pH 7.2, 10 mM MgCl2, 0.1% (w/v) bovine serum albumin, 0.05% NaN3 for 10-30 minutes. The enzyme level was set so that reaction was linear throughout the incubation.
For the PDE3, PDE4B and PDE4D assays Fluorescein adenosine 3′,5′-cyclic phosphate (Molecular Devices Ltd code: R7091) was added to give ˜40 nM final concentration. For the PDE5 and PDE6 assays Fluorescein guanosine 3′,5′-cyclic phosphate (Molecular Devices Ltd code: R7090) was added to give ˜40 nM final concentration. Plates were mixed on an orbital shaker for 10 seconds and incubated at ambient temperature for 40 minutes. IMAP binding reagent (Molecular Devices Ltd code: R7207) was added (60 μl of a 1 in 400 dilution in binding buffer of the kit stock solution) to terminate the assay. […] The FP ratio of parallel to perpendicular light was measured using an Analyst™ plate reader (from Molecular Devices Ltd). […] Curves were analysed using ActivityBase and XLfit (ID Business Solutions Limited). Results were expressed as pIC50 values.

Human recombinant PDE4D = Human recombinant PDE4D (Homo sapiens, UniProt Q08499); assay: PDE4D IMAP fluorescence polarisation assay; details: human recombinant PDE4D (HSPDE4D3A); accurate to within ±0.5; read-out: PDE4D mean pIC50 (converted)
Sequence of Human recombinant PDE4D (Q08499 1-673 isoform Q08499-2): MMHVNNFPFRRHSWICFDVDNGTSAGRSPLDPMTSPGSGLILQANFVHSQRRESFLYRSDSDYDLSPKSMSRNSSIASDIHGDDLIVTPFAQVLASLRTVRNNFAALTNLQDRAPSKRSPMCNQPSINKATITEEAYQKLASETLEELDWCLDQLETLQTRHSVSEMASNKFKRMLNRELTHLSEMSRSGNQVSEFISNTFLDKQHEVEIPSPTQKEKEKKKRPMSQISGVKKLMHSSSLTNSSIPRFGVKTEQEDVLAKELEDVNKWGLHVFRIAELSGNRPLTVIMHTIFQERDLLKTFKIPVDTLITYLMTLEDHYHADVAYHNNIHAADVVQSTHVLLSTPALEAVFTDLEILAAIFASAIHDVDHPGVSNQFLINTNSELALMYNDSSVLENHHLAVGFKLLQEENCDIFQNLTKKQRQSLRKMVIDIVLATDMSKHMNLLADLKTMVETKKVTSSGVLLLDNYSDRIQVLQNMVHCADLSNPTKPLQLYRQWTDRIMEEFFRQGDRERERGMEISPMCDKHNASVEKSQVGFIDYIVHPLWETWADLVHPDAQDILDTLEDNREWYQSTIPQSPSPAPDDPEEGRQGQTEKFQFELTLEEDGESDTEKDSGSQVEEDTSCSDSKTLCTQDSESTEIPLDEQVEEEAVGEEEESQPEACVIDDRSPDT
Method: Human recombinant PDE4D (HSPDE4D3A) is disclosed in P. A. Baecker et al., “Isolation of a cDNA encoding a human rolipram-sensitive cyclic AMP phoshodiesterase (PDE IVD)”, Gene, 1994, 138, 253-256.
as §1
(§2) For the PDE3, PDE4B and PDE4D assays Fluorescein adenosine 3′,5′-cyclic phosphate (Molecular Devices Ltd code: R7091) was added to give ˜40 nM final concentration. For the PDE5 and PDE6 assays Fluorescein guanosine 3′,5′-cyclic phosphate (Molecular Devices Ltd code: R7090) was added to give ˜40 nM final concentration. Plates were mixed on an orbital shaker for 10 seconds and incubated at ambient temperature for 40 minutes. IMAP binding reagent (Molecular Devices Ltd code: R7207) was added (60 μl of a 1 in 400 dilution in binding buffer of the kit stock solution) to terminate the assay. Plates were allowed to stand at ambient temperature for 1 hour. The FP ratio of parallel to perpendicular light was measured using an Analyst™ plate reader (from Molecular Devices Ltd). […] Curves were analysed using ActivityBase and XLfit (ID Business Solutions Limited). Results were expressed as pIC50 values.

Human recombinant PDE5 = Human recombinant PDE5 (Homo sapiens, UniProt O76074); assay: PDE5 IMAP fluorescence polarisation assay; details: accurate to within ±0.5, read-out: PDE5 mean pIC50 (converted)
Method: Human recombinant PDE5 is disclosed in K. Loughney et al., “Isolation and characterisation of cDNAs encoding PDE5A, a human cGMP-binding, cGMP-specific 3′,5′-cyclic nucleotide phosphodiesterase”, Gene, 1998, 216, 139-147.
as §1, §2

PDE6 = target: T2, PDE6 (Bos taurus, UniProt P11541+P23439); assay: PDE6 IMAP fluorescence polarisation assay; details: PDE6 from bovine retina; accurate to within ±0.5; read-out: PDE6 mean pIC50 (converted)
T2 construct: PDE6 may be purified from bovine retina; from tissue; host or cells: bovine retina
T2 sequence (P11541 2-856 limits assumed): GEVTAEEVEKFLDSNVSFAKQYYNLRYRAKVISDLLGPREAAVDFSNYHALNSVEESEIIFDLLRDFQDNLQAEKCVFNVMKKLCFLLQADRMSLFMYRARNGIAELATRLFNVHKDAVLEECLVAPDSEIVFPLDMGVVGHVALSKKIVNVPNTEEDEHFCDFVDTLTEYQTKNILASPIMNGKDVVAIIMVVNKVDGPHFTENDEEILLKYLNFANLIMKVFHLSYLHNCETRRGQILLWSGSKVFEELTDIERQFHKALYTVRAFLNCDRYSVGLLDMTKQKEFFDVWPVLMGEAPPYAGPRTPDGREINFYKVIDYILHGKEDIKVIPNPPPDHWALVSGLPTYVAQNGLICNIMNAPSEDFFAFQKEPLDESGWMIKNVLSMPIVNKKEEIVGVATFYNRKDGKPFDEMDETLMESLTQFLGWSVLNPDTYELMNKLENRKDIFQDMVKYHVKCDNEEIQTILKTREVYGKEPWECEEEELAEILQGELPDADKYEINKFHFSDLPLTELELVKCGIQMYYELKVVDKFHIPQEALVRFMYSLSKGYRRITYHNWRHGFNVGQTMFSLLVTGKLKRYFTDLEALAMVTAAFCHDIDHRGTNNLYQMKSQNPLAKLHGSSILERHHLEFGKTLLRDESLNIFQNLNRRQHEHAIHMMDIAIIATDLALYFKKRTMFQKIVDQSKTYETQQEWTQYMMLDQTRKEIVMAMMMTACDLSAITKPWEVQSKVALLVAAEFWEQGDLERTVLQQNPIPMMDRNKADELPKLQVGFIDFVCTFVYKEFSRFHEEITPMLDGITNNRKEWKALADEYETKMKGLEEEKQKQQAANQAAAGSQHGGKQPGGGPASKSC
T2 sequence (P23439 2-850 limits assumed): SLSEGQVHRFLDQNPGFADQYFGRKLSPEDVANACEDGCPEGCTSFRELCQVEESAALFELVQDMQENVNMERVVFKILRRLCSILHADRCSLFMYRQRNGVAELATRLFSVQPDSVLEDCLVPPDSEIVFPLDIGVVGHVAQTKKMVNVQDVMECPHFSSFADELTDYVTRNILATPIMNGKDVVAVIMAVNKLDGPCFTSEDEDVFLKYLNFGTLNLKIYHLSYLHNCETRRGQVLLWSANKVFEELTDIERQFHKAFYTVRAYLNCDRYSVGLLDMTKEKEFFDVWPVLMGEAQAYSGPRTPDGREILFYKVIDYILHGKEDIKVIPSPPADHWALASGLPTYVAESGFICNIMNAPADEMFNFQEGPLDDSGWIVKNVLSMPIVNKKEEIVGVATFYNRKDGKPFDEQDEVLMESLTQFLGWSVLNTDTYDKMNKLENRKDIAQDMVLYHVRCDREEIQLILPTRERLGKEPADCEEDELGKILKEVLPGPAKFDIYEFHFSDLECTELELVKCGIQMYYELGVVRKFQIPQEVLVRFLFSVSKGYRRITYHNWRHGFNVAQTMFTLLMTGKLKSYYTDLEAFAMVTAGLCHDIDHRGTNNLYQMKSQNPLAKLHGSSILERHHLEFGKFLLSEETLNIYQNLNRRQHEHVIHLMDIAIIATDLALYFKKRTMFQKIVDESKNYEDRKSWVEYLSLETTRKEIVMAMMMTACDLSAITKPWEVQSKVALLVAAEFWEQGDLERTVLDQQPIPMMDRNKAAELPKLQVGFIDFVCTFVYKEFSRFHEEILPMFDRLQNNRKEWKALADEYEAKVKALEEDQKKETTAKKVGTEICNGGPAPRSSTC
Source text: PDE6 may be purified from bovine retina as described by: P. Catty and P. Deterre, “Activation and solubilization of the retinal cGMP-specific phosphodiesterase by limited proteolysis”, Eur. J. Biochem., 1991, 199, 263-269; A. Tar et al. “Purification of bovine retinal cGMP phosphodiesterase”, Methods in Enzymology, 1994, 238, 3-12; and/or D. Srivastava et al. “Effects of magnesium on cyclic GMP hydrolysis by the bovine retinal rod cyclic GMP phosphodiesterase”, Biochem. J., 1995, 308, 653-658.
as §1, §2

T1 sequence (Q07343 1-564 isoform Q07343-2): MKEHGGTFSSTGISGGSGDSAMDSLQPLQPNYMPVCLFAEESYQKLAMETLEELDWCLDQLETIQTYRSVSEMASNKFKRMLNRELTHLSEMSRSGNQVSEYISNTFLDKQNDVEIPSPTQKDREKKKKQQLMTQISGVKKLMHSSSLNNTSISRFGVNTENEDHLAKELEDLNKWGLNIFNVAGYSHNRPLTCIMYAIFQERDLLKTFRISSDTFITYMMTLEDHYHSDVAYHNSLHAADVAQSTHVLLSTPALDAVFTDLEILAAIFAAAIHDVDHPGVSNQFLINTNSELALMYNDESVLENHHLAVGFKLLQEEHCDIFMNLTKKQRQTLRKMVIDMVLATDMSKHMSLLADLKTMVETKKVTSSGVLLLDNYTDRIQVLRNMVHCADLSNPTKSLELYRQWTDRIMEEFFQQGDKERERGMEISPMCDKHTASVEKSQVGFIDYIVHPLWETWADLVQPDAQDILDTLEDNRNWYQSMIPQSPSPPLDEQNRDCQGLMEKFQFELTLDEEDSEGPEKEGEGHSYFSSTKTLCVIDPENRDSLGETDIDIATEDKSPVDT

| IC50 (Human recombinant PDE4B) [nM] | IC50 (Human recombinant PDE4D) [nM] | IC50 (Human recombinant PDE5) [nM] | IC50 (PDE6) [nM] | SMILES |
| --- | --- | --- | --- | --- |
| 0.398 | 0.631 | > 10000 | > 10000 | Cc1nc([S+](C)[O-])cc2c(Nc3cccc4c3CCO4)c(C(N)=O)cnc12 (racemic) [Example 3, (±)-4-(2,3-Dihydro-1-benzofuran-4-ylamino)-8-methyl-6-(methylsulfinyl)-1,7-naphthyridine-3-carboxamide] |
| 0.316 | 0.316 | > 10000 | > 10000 | CSc1cc2c(Nc3cccc4c3CCO4)c(C(N)=O)cnc2c(C)n1 [Example 1, 4-(2,3-Dihydro-1-benzofuran-4-ylamino)-8-methyl-6-(methylthio)-1,7-naphthyridine-3-carboxamide] |
| 0.126 | 0.2 | > 10000 | > 10000 | Cc1nc(S(C)(=O)=O)cc2c(Nc3cccc4c3CCO4)c(C(N)=O)cnc12 [Example 2, 4-(2,3-Dihydro-1-benzofuran-4-ylamino)-8-methyl-6-(methylsulfonyl)-1,7-naphthyridine-3-carboxamide] |
